Laboratory results from US11649227B2, “Allosteric chromenone inhibitors of phosphoinositide 3-kinase (PI3K) for the treatment of disease” (Petra Pharma Corporation, priority 2020, dated 2023).
pEC50, pIC50: −log10 of the molar value.

Legend:
[1] = test system: T-47D; test: Cellular Assay T-47D; assay type: cell-based; details: Homo sapiens, T47D; T-47D cells
[2] = molecular target: human full length PIK3CA H1047R mutant (p110α/p85α complex) (Homo sapiens (Human), UniProt P42336, H1047R); test: PI3K-Alpha kinase (PIK3CA) activity, H1047R mutant, Transcreener ADP2 FI assay; details: PI3K-α (PIK3CA) H1047R mutant, biochemical
Procedure: (§1) PI3K-Alpha kinase (PIK3CA) activity, wild-type and H1047R mutant and determining IC50 values for inhibitors
(§2) Recombinant, catalytically active human full length PIK3KA Wild-type and H1047R mutant were purchased as 1:1 complex of N-terminal 6×his tagged p110<(catalytic) and untagged p85<(regulatory subunit) from EMD Millipore Sigma (cat. no. 14-602M and 14-792M, respectively). The enzyme stocks were diluted to 5× stocks in buffer (20 mM HEPES pH 7.4, 100 mM NaCl, 0.5 mM EGTA, 0.01% triton-x-100) just before use. PIP2diC8 (Avanti Polar Lipids Inc., cat. no. 850185) or phosphoinositol-4,5-bisphosphate with phosphoserine (PIP2:PS) membrane (Thermo Fisher Scientific, cat. no. PV5100) was used as lipid substrates. PIP2diC8 lyophilized powder and PIP2:PS (1:19) membrane stock (1 mM in PIP2) were separately dissolved in milliQ water to a concentration of 250 uM and stored in −20° C. 10 mM stocks of compounds were serially diluted (3×) in neat DMSO and stored in a dessicator at room temperature. 5× compound stocks in 25% DMSO were prepared fresh from neat DMSO stocks. Wild-type (WT) and H1047R mutant protein, along with buffer components (except ATP), were incubated with or without compound at 27° C. for 1h. After incubation, the reaction was initiated by the addition of 5 uL of 125 uM ATP. A typical assay mixture (25 uL) comprised 40 mM HEPES buffer, pH 7.4, 25 mM MgCl2, 0.01% v/v triton-X-100, 5% v/v DMSO, 20 mM NaCl, 1-5 nM wt or H1047R, 25 uM ATP, and 50 uM PTP2diC8 or PTP2 in membrane. The reaction was allowed to proceed until about […] (2.5 uM ADP) after which time, 10 uL of reaction mixture was quenched with 25 uL of transcreener reagent (Transcreener ADP2 FI assay kit, BellBrook labs, Cat. No. 3013). The contents were incubated at rt for 1h and fluorescence was measured using a plate reader (Paradigm, Molecular Devices). The same assay was also run at pH 6.0 or 6.4 using MOPS buffer (Fisher BioReagents, CAS 1132-61-2). A calibration curve was generated under identical buffer conditions with varying ADP amounts. Using that, the observed fluorescence was converted to uM ADP. A plot between [ADP] and log[I] yielded the dose-response curves that enabled the calculation of IC50s.

[3] = molecular target: human full length PIK3CA Wild-type (p110α/p85α complex) (Homo sapiens (Human), UniProt P42336); test: PI3K-Alpha kinase (PIK3CA) activity, wild-type, Transcreener ADP2 FI assay; details: PI3K-α (PIK3CA) wild-type, biochemical
Procedure: as §1, §2

Sequence of human full length PIK3CA H1047R mutant (p110α/p85α complex) (P42336 whole entry H1047R): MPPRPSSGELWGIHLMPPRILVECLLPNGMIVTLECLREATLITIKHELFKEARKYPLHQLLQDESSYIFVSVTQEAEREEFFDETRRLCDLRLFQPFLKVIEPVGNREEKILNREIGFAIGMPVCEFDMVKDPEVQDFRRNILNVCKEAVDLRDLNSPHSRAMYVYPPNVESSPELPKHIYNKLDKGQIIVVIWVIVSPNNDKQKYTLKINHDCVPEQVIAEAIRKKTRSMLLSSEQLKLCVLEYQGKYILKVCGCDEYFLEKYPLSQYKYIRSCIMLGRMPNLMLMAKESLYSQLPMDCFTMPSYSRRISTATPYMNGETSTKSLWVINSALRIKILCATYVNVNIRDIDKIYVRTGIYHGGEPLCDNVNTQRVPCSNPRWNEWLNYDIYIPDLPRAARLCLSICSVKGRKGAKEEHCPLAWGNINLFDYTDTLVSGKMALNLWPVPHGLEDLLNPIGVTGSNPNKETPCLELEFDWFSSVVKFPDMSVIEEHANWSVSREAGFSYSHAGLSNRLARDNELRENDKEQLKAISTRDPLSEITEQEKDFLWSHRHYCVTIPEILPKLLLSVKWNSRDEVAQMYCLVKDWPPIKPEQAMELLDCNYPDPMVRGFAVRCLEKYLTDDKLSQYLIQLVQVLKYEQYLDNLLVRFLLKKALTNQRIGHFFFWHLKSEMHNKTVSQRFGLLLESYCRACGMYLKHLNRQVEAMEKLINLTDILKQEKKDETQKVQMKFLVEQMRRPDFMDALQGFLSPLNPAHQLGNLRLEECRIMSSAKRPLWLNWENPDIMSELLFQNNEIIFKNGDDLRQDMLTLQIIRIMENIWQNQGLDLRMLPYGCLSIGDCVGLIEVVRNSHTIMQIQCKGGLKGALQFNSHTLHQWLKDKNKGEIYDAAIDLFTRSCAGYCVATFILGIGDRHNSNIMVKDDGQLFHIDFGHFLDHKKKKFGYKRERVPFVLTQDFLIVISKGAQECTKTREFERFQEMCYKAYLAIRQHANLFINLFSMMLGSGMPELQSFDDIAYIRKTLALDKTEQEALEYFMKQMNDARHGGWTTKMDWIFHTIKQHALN
Sequence of human full length PIK3CA H1047R mutant (p110α/p85α complex) (P27986 whole entry partner): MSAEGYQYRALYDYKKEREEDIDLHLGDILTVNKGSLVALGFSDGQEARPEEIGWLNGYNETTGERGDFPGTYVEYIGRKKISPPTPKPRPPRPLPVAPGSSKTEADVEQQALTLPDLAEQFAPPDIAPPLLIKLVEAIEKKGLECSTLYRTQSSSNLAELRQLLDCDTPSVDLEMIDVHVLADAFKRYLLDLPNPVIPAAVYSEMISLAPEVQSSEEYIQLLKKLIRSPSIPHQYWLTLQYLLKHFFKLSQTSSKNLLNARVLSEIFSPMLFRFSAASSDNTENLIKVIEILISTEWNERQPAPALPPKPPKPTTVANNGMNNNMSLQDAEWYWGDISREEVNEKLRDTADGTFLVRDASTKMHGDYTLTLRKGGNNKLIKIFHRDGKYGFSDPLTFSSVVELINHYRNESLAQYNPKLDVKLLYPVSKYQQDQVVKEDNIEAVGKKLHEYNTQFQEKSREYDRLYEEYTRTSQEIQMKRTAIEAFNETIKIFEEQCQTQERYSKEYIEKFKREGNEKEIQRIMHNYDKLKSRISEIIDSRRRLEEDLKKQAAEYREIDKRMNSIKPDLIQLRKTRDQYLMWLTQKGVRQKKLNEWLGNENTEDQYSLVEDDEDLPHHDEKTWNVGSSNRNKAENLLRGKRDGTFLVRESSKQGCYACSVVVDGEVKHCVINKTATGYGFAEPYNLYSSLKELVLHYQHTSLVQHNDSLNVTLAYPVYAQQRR
Sequence of human full length PIK3CA Wild-type (p110α/p85α complex) (P42336 whole entry): as the sequence (P42336 whole entry H1047R) above, with R1047H counted along it
Sequence of human full length PIK3CA Wild-type (p110α/p85α complex) (P27986 whole entry partner): as the sequence (P27986 whole entry partner) above

With `Cc1cc(C(C)Nc2c(Cl)cccc2C(=O)O)c2oc(N3CCC(C)(C)CC3)cc(=O)c2c1` (stereo not shown) [Example 11, 3-Chloro-2-[1-[2-(4,4-dimethyl-1-piperidyl)-6-methyl-4-oxo-chromen-8-yl]ethylamino]benzoic acid] the pEC50 [1] was 4.62 to 4.82.
`Cc1cc(C(C)Nc2cc(F)c(F)cc2C(=O)O)c2oc(N3CCC(C)(C)CC3)cc(=O)c2c1` (stereo not shown) [Example 13, 2-[1-[2-(4,4-Dimethyl-1-piperidyl)-6-methyl-4-oxo-chromen-8-yl]ethylamino]-4,5-difluoro-benzoic acid] showed a pEC50 [1] of 4.62 to 4.82.
Compound `Cc1cc(C(C)Nc2ccc(C#N)cc2C(=O)O)c2oc(N3CCC(C)(C)CC3)cc(=O)c2c1` (stereo not shown) [Example 6, 5-Cyano-2-[1-[2-(4,4-dimethyl-1-piperidyl)-6-methyl-4-oxo-chromen-8-yl]ethylamino]benzoic acid] has a pEC50 [1] of 5.30 to 6.00.
Work on `Cc1cc(C(C)Nc2ccccc2C(=O)O)c2oc(N3CCN(C)CC3)cc(=O)c2c1` (stereo not shown) [Example 92, 2-[1-[6-Methyl-2-(4-methylpiperazin-1-yl)-4-oxo-chromen-8-yl]ethylamino]benzoic acid] yielded a pEC50 [1] of under 4.62.
`Cc1cc(C(C)Nc2ccccc2C(=O)O)c2oc(NCC(C)C)cc(=O)c2c1` (stereo not shown) [Example 77, 2-[1-[2-(Isobutylamino)-6-methyl-4-oxo-chromen-8-yl]ethylamino]benzoic acid] showed a pEC50 [1] of under 4.62.
With `Cc1cc(C(C)Nc2cc(Cl)ccc2C(=O)O)c2oc(N3CCC(C)(C)CC3)cc(=O)c2c1` (stereo not shown) [Example 10, 4-Chloro-2-[1-[2-(4,4-dimethyl-1-piperidyl)-6-methyl-4-oxo-chromen-8-yl]ethylamino]benzoic acid] the pEC50 [1] was 4.62 to 4.82.
With `Cc1cc(C(C)Nc2ccccc2C(=O)O)c2oc(N3CCC(C)(C)CC3)c(-c3cnoc3)c(=O)c2c1` (single isomer, unassigned) [Example 54, 2-[1-[2-(4,4-Dimethyl-1-piperidyl)-3-isoxazol-4-yl-6-methyl-4-oxo-chromen-8-yl]ethylamino]benzoic acid] the pIC50 [2] was under 5.00 and the pIC50 [3] was under 5.00.
`CC(Nc1ccccc1C(=O)O)c1cc(C(F)(F)F)cc2c(=O)cc(N3Cc4ccc(F)cc4C3)oc12` (single isomer, unassigned) [Example 335, 2-[1-[2-(5-Fluoroisoindolin-2-yl)-4-oxo-6-(trifluoromethyl)chromen-8-yl]ethylamino]benzoic acid] was tested, and the pIC50 [2] was over 6.30 and the pIC50 [3] was 6.00 to 6.30.
`Cc1cc(C(C)Nc2ccc(F)cc2C(=O)O)c2oc(N3Cc4ccc(F)cc4C3)cc(=O)c2c1` (single isomer, unassigned) [Example 349, 5-Fluoro-2-[1-[2-(5-fluoroisoindolin-2-yl)-6-methyl-4-oxo-chromen-8-yl]ethylamino]benzoic acid] showed a pIC50 [2] of over 6.30 and a pIC50 [3] of over 6.30.
With `Cc1cc(C(C)Nc2ccccc2C(=O)O)c2oc(N3CCC(C)(C)CC3)c(C#N)c(=O)c2c1` (stereo not shown) [Example 392, 2-[1-[3-Cyano-2-(4,4-dimethyl-1-piperidyl)-6-methyl-4-oxo-chromen-8-yl]ethylamino]benzoic acid 2,2,2-trifluoroacetic acid] the pIC50 [2] was 6.00 to 6.30 and the pIC50 [3] was 6.00 to 6.30.
`Cc1cc(C(C)Nc2ccccc2C(=O)O)c2oc(N3CCC(C(F)(F)F)CC3)cc(=O)c2c1` (stereo not shown) [Example 74, 2-[1-[6-Methyl-4-oxo-2-[4-(trifluoromethyl)-1-piperidyl]chromen-8-yl]ethylamino]benzoic acid] gave a pIC50 [2] of 6.00 to 6.30 and a pIC50 [3] of 5.00 to 5.30.
`Cc1cc(C(C)Nc2ccccc2S(=O)(=O)C(F)F)c2oc(N3CCC(C)(C)CC3)cc(=O)c2c1` (stereo not shown) [Example 38, 8-[1-[2-(Difluoromethylsulfonyl)anilino]ethyl]-2-(4,4-dimethyl-1-piperidyl)-6-methyl-chromen-4-one] showed a pIC50 [2] of 6.00 to 6.30 and a pIC50 [3] of 6.00 to 6.30.
`Cc1cc(C(C)Nc2ccccc2C(=O)O)c2oc(N3Cc4ccccc4C3)cc(=O)c2c1` (single isomer, unassigned) [Example 362, 2-[1-(2-Isoindolin-2-yl-6-methyl-4-oxo-chromen-8-yl)ethylamino]benzoic acid] showed a pIC50 [2] of over 6.30 and a pIC50 [3] of 6.00 to 6.30.
Work on `Cc1c(N2Cc3ccc(F)cc3C2)oc2c(C(C)Nc3ccccc3C(=O)O)cc(F)cc2c1=O` (single isomer, unassigned) [Example 319, 2-[1-[6-Fluoro-2-(5-fluoroisoindolin-2-yl)-3-methyl-4-oxo-chromen-8-yl]ethylamino]benzoic acid] yielded a pIC50 [2] of over 6.30 and a pIC50 [3] of 6.00 to 6.30.
Work on `Cc1cc(C(C)Nc2cccc3cc(C(=O)O)sc23)c2oc(N3CCC(C)(C)CC3)cc(=O)c2c1` (stereo not shown) [Example 46, 7-[1-[2-(4,4-Dimethyl-1-piperidyl)-6-methyl-4-oxo-chromen-8-yl]ethylamino]benzothiophene-2-carboxylic acid] yielded a pIC50 [2] of 6.00 to 6.30 and a pIC50 [3] of 5.30 to 6.00.
`Cc1cc(C(C)Nc2ccccc2C(=O)O)c2oc(N3Cc4ccc(F)cc4C3)c(C)c(=O)c2c1` (single isomer, unassigned) [Example 272, 2-[1-[2-(5-Fluoroisoindolin-2-yl)-3,6-dimethyl-4-oxo-chromen-8-yl]ethylamino]benzoic acid] was tested, and the pIC50 [2] was over 6.30 and the pIC50 [3] was 6.00 to 6.30.
With `Cc1cc(C(C)Nc2ccccc2C(=O)O)c2oc(N3Cc4ccccc4C3)c(C)c(=O)c2c1` (single isomer, unassigned; isomer 1) [Example 265, 2-[1-(2-Isoindolin-2-yl-3,6-dimethyl-4-oxo-chromen-8-yl)ethylamino]benzoic acid, Isomer 1] the pIC50 [2] was over 6.30 and the pIC50 [3] was 5.30 to 6.00.
`Cc1cc(C(C)Nc2cccc(F)c2C(=O)O)c2oc(N3Cc4ccc(F)cc4C3)c(C)c(=O)c2c1` (single isomer, unassigned) [Example 244, 2-Fluoro-6-[1-[2-(5-fluoroisoindolin-2-yl)-3,6-dimethyl-4-oxo-chromen-8-yl]ethylamino]benzoic acid] was tested, and the pIC50 [2] was under 5.00 and the pIC50 [3] was 5.00 to 5.30.
Work on `Cc1c(N2Cc3ccccc3C2)oc2c(C(C)Nc3ccccc3C(=O)O)cc(C(F)(F)F)cc2c1=O` (single isomer, unassigned) [Example 348, 2-[1-[2-Isoindolin-2-yl-3-methyl-4-oxo-6-(trifluoromethyl)chromen-8-yl]ethylamino]benzoic acid] yielded a pIC50 [2] of over 6.30 and a pIC50 [3] of 6.00 to 6.30.
`Cc1c(N2Cc3ccc(F)cc3C2)oc2c(C(C)Nc3ccccc3C(=O)O)cc(C(F)(F)F)cc2c1=O` (single isomer, unassigned) [Example 343, 2-[1-[2-(5-Fluoroisoindolin-2-yl)-3-methyl-4-oxo-6-(trifluoromethyl)chromen-8-yl]ethylamino]benzoic acid] was tested, and the pIC50 [2] was over 6.30 and the pIC50 [3] was 6.00 to 6.30.
With `Cc1cc([C@@H](C)Nc2ccnnc2C(=O)O)c2oc(N3CCC(C)(C)CC3)cc(=O)c2c1` [Example 251] the pIC50 [2] was 5.30 to 6.00 and the pIC50 [3] was 5.30 to 6.00.
With `Cc1cc(C(C)Nc2ccccc2-c2noc(=O)[nH]2)c2oc(N3CCC(C)(C)CC3)cc(=O)c2c1` (stereo not shown) [Example 45, 3-[2-[1-[2-(4,4-Dimethyl-1-piperidyl)-6-methyl-4-oxo-chromen-8-yl]ethylamino]phenyl]-4H-1,2,4-oxadiazol-5-one] the pIC50 [2] was 6.00 to 6.30 and the pIC50 [3] was 5.30 to 6.00.
Compound `Cc1cc(C(C)Nc2ccccc2C(=O)O)c2oc(N3CCC(C)(C)CC3)c(C3CC3)c(=O)c2c1` (single isomer, unassigned) [Example 51, 2-[1-[3-Cyclopropyl-2-(4,4-dimethyl-1-piperidyl)-6-methyl-4-oxo-chromen-8-yl]ethyalmino]benzoic acid] has a pIC50 [2] of over 6.30 and a pIC50 [3] of 5.30 to 6.00.
For `Cc1cc(C(C)Nc2ccc(C3CC3)nc2C(=O)O)c2oc(N3CCC(C)(C)CC3)cc(=O)c2c1` (stereo not shown) [Example 50, 6-Cyclopropyl-3-[1-[2-(4,4-dimethyl-1-piperidyl)-6-methyl-4-oxo-chromen-8-yl]ethylamino]pyridine-2-carboxylic acid], the pIC50 [2] was 6.00 to 6.30 and the pIC50 [3] was 5.30 to 6.00.
With `CC(Nc1ccccc1C(=O)O)c1cc(C(F)(F)F)cc2c(=O)cc(N3CCC(C)(C)CC3)oc12` (stereo not shown) [Example 57, 2-[1-[2-(4,4-dimethyl-1-piperidyl)-4-oxo-6-(trifluoromethyl)chromen-8-yl]ethylamino]benzoic acid] the pIC50 [2] was 6.00 to 6.30 and the pIC50 [3] was 5.30 to 6.00.
`Cc1cc(C(C)Nc2ccccc2C(=O)O)c2oc(N3Cc4ccc(F)cc4C3)cc(=O)c2c1` (single isomer, unassigned) [Example 124, 2-[1-[2-(5-Fluoroisoindolin-2-yl)-6-methyl-4-oxo-chromen-8-yl]ethylamino]benzoic acid] gave a pIC50 [2] of 5.00 to 5.30 and a pIC50 [3] of under 5.00.
